Experimental findings from patent US11603380B2 (Centre national de la recherche scientifique, priority 2018, dated 2023) are described below.

The test system of data set [1] is human cytomegalovirus (HCMV) (AD-169). Description: microbe, parasite or virus in culture. It is filed as cell-based. The following applies: read-out: EC50 HCMV (AD-169).
For data set [2], the system named is human cytomegalovirus (HCMV) (Davis). Description: microbe, parasite or virus in culture. It is filed as cell-based. The conditions noted are these: read-out: EC50 HCMV (Davis).
Data set [3] relates to varicella-zoster virus (VZV) TK+ (OKA). Description: microbe, parasite or virus in culture. The following applies: read-out: EC50 VZV TK+ (OKA). In kind it is cell-based.
The test system of data set [4] is herpes simplex virus 1 (HSV-1) (KOS). Description: microbe, parasite or virus in culture. It is filed as cell-based. The following applies: read-out: EC50 HSV-1 (KOS).
A further data set relates to HSV-2 (G). As to the kind of experiment: microbe, parasite or virus in culture. The conditions noted are these: read-out: EC50 HSV-2 (G). It is filed as cell-based, herpes simplex virus 2.
For another data set, the system named is HSV-1 (KOS ACV) TK−. As to the kind of experiment: microbe, parasite or virus in culture. In kind it is cell-based, herpes simplex virus 1.
For a further data set, the system named is Vaccinia Virus. Description: microbe, parasite or virus in culture. In kind it is cell-based. The conditions noted are these: read-out: EC50 Vaccinia Virus.
A further data set concerns Feline Herpes Virus. Description: organism not typed. In kind it is cell-based. The following applies: read-out: EC50 Feline Herpes Virus.
The test system of another data set is HEL cells. The following applies: read-out: Cytotoxicity CC50; concentration reducing cell growth by 50%; HCMV/VZV table.
Data set [5] has as its system VZV-BAC-Luc strain (wild type). Description: microbe, parasite or virus in culture. The conditions noted are these: Human alphaherpesvirus 3, ARPE-19, 72 h, read-out: approximate EC50, wild type VZV. It is filed as cell-based, varicella zoster virus.
In data set [6] the test system is VZV-BAC-Luc TK− strain (ACV^R). As to the kind of experiment: microbe, parasite or virus in culture. In kind it is cell-based, varicella zoster virus. The conditions noted are these: Human alphaherpesvirus 3, ARPE-19, 72 h, read-out: approximate EC50, ACV^R VZV.
Data set [7] concerns VZV-BAC-Luc in human fetal skin. Description: Human skin organ culture model of VZV replication. In kind it is cell-based, varicella zoster virus. The conditions noted are these: Day 11; cidofovir 5 μM; 5 at 1 and 5 μM (p<0.0001 vs vehicle).
The test system of another data set is VZV-BAC-Luc. As to the kind of experiment: SCID-Hu mouse model of VZV replication (human fetal skin xenografts). In kind it is in vivo, CB.17 scid/beige male mice. The conditions noted are these: once daily Days 0-8; 5 26 mg/kg subcutaneous, cidofovir 10 mg/kg intraperitoneal; yield compared Day 9, p=0.0051. As to the method:
SCID-Hu mouse model of VZV replication. CB.17 scid/beige male mice (Charles River) were implanted subcutaneously with human fetal skin (the same type of specimens used for the skin organ culture assay). After 3-4 weeks engraftment, the skin implants were inoculated with VZV-BAC-Luc or VZV-ORF57-Luc. The mice were divided into groups (N=10-13) for treatment or controls. The positive control antiviral drug was cidofovir, 10 mg/kg/day given by intraperitoneal injection. The negative control was the vehicle Cremophor-DMSO-saline (1:1:8) given by subcutaneous injection. The treatment groups were 5 in Cremophor-DMSO-saline, 26, 13, or 6.5 mg/kg/day, given by subcutaneous injection. Treatment began 2 hours or 3 days after the inoculation surgery and continued daily or alternating days for up to 9 days. The mice were scanned in the IVIS-200 instrument daily from Day 1-10. The mice were weighed before the start of the study and daily during the treatment phase.
Statistical analysis: The results were analyzed for statistical significance by Student's t test or by ANOVA and Dunnett's post hoc test of multiple comparisons (GraphPad Prism).
CB.17 scid/beige male mice were implanted subcutaneously with human fetal skin (the same type of specimens used for the skin organ culture assay). After 3-5 weeks engraftment period, the skin implants were inoculated with VZV-BAC-Luc. The mice were divided into 3 groups of 10-13 mice: vehicle (Cremophor-DMSO-saline 1:1:8), cidofovir 10 mg/kg in saline, and 5 26 mg/kg in Cremophor-DMSO-saline. 5 at 26 mg/kg is the molar equivalent dose to cidofovir 10 mg/kg. Cidofovir was given by the intraperitoneal route, once daily, from Days 0-8. Vehicle and 5 were given by the subcutaneous route, once daily, from Days 0-8. The mice were scanned in the IVIS-200 instrument daily from Day 1-9 and the Total Flux values indicated VZV-infected cells in the skin xenografts (FIG. 3). […] VZV grew normally in the Vehicle group.
In addition, a dose-ranging and delayed treatment assay was included to determine the lowest effective dose (FIGS. 5A and 5B). As before, 5 26 mg/kg was given once daily, by the subcutaneous route, from Days 0-6. This group was compared to Vehicle (Cremophor-DMSO-saline). In the dose ranging assay, 5 high dose (26 mg/kg), medium dose (13 mg/kg) or low dose (6.5 mg/kg) was given once daily, by the subcutaneous route, from Days 3-9. The treatment phase was delayed to Day 3 because this is more clinically relevant.
For orientation: A xenograft is tissue or cells of one species grown in another, often human tumour cells in immunodeficient mice.

The next data set is described as follows: in vitro. The following applies: human, Cytotoxicity CC50.
A short description of data set [8]: Weight and condition of mice during treatment in the SCID-Hu model. The following applies: first study, Days 0-8; 5 26 mg/kg sc, cidofovir 10 mg/kg ip.
The next data set has as its system HBV. As to the kind of experiment: Anti-HBV activity, Huh7 cells transfected with pHBV1.1×, intra-capsid viral DNA by real-time PCR. In kind it is cell-based, Hepatitis B virus. The conditions noted are these: 7 days, read-out: IC50 (HBV replication) (converted).
Where [9] appears, read: read-out: EC50 HSV-1 (KOS ACV) TK−.

Like-named read-outs stand apart in the source and are kept apart here.

For `CCCCCCCCCCCCCCCCOCCCOP(=O)(CC=C(COC(C)=O)COc1cc(Cl)nc(N)n1)OCOC(=O)OC(C)C` (mixture of isomers) [Compound (8), [(E/Z)-2′-[(2-amino-6-chloro-pyrimidin-4-yl)oxymethyl]-4-[3-hexadecoxypropoxy(isopropoxycarbonyloxymethoxy)phosphoryl]but-2′-enyl]acetate], the EC50 (commonly the concentration needed to bring the measured effect to its halfway point) in [1] was more than 20 µM; in data set [2], 13.1 µM; in [3], 48.9 µM; in data set [4], more than 100 µM; with HSV-2 (G), more than 100 µM; in the data set with HSV-1 (KOS ACV) TK− (setting [9]), more than 100 µM. In addition, the EC50 in the data set on Vaccinia Virus and in the data set on Feline Herpes Virus was more than 100 µM each time. Besides, the “Cytotoxicity MCC” value in the data set with HEL cell cultures was found to be 100 µM. For the same molecule, the CC50 (as a rule, the concentration at which the toxic effect on the cells reaches its halfway point) with HEL cells worked out at 5.01 µM.
Turning to `Nc1ccn(C[C@@H](CO)OCP(=O)(O)O)c(=O)n1` [Cidofovir, reference compound], the EC50 in [1] (Human betaherpesvirus 5, AD169, HEL) was 1.2 µM; in data set [2] (Human betaherpesvirus 5, HEL), 1 µM; in [4] (Human alphaherpesvirus 1, HEL), 4.5 µM; with HSV-2 (G) (Human alphaherpesvirus 2, HEL) it was 1 µM; with HSV-1 (KOS ACV) TK− (Human alphaherpesvirus 1, read-out: EC50 HSV-1 (KOS ACV) TK−), 2.8 µM; with Vaccinia Virus (Orthopoxvirus vaccinia, HEL), 112 µM. Moreover, the EC50 in data set [5] and in data set [6] was approximately 2.5 µM in each case. Also, the “VZV yield in skin organ culture compared to vehicle” value in [7] is listed as “effective”. Moreover, the “VZV spread / virus yield (Total Flux) vs Vehicle” value with VZV-BAC-Luc is “prevented VZV spread”. In the data set with HEL cell cultures (human), the “Cytotoxicity MCC” value is more than 100 µM. The CC50 in “in vitro” was more than 100 µM. Moreover, in data set [8], the “change in weight during the treatment phase” value is on record as “moderate weight loss”.
In the case of `CCCCCCCCCCCCCCCCOCCCOP(=O)(C/C=C/COc1cc(N)nc(N)n1)OCOC(=O)OC(C)C` (centres unmarked) [Compound (2), [[(E)-4-(2,6-diaminopyrimidin-4-yl)oxybut-2′-enyl]-(3-hexadecoxypropoxy)phosphoryl]oxymethyl isopropyl carbonate], the EC50 was 7.08 µM in data set [1]; 7.26 µM in data set [2]; 0.17 µM in data set [3]; more than 100 µM in data set [4]; more than 100 µM in the data set on HSV-2 (G); more than 100 µM with HSV-1 (KOS ACV) TK− (setting [9]). The EC50 in the data set on Vaccinia Virus and in the data set on Feline Herpes Virus was more than 100 µM in each case. Also, in the data set with HEL cell cultures, the “Cytotoxicity MCC” value is more than 100 µM. For the same molecule, in the data set on HEL cells, the CC50 stood at 14.5 µM.
Turning to “[(E)-2-[(2,6-diaminopyrimid in-4-yl)oxymethyl]-4-[3-hexadecoxypropoxy (isopropoxycarbonyloxymethoxy)phosphoryl]but-2′-enyl]acetate [Compound 13]”, the IC50 (as a rule, the concentration needed to halve the response being measured) in the data set on HBV is 1.6 µM.
For “[(E/Z)-2-[[2-[bis(tert-butoxycarbonyl)amino]-6-methoxy-pyrimidin-4-yl]oxymethyl]-4-[3-hexadecoxypropoxy(isopropoxycarbonyloxymethoxy)phosphoryl]but-2′-enyl]acetate [Compound (7)]”, the EC50 in data set [1] was more than 20 µM; in [2] it was 8.94 µM; in [3] it was more than 20 µM; in data set [4], more than 100 µM; in the data set with HSV-2 (G) it was more than 100 µM; with HSV-1 (KOS ACV) TK− (setting [9]) it was more than 100 µM. Moreover, the EC50 in the data set on Vaccinia Virus and in the data set on Feline Herpes Virus was more than 100 µM in each case. Also, the “Cytotoxicity MCC” value in the data set on HEL cell cultures was 100 µM. The CC50 in the data set with HEL cells came out at 1.29 µM.
